One experiment addresses T1, EGFR (Homo sapiens, UniProt P00533).
T1 construct: A431 […] cell lysate is stored at −80° C; host or cells: A431 cell lysate
Put plainly: Assay for modulation of EGFR activity (ELISA). It counts as biochemical. As for the experimental part:
Using the following reagents, supplies, and method, the ability of compounds of the invention to modulate the in vitro activity of EGFR can be readily determined in an ELISA.
A431 […] cell lysate is stored at −80° C.
ATP/MnCl2 phosphorylation mix is prepared by adding 300 μL of 1.0 mM ATP and […] of 1M MnCl2 to 9.2 mL of dH2O and mixing. Ten mL of phosphorylation mix is enough for about 6 assay plates. Note that the mixture should be made fresh and kept on ice immediately before use, and that although the preferred ATP is fresh from powder stock, any remaining stock solution of ATP may be frozen at −20° C. in small aliquots to be used at a later time.
Coat Corning 96 well ELISA plates with 0.5 μg per well with SUMO1 in a volume of 100 μL PBS overnight, at 4° C. Remove unbound SUMO1 from wells by inverting plate to remove liquid. Wash 1× with distilled H2O by filling wells. Pat the plate on a paper towel to remove excess liquid.
Add 150 μL of Blocking Buffer to each well. Incubate for 30 minutes at room temperature, with shaking. Wash plate 3× with deionized water, then once with TBST. Pat plate on a paper towel to remove excess liquid and bubbles.
Dilute lysate in PBS (7 μg lysate/[…]) and add 100 μL of diluted lysate to each well. Shake at room temperature for 60 minutes. Wash 1× with distilled H2O by filling wells. Pat the plate on a paper towel to remove excess liquid.
Add 120 μL TBST to ELISA plate containing captured EGFR.
Dilute drugs/extracts 1:10 (unless specified otherwise) in TBST in 96-well polypropylene plates. (i.e., 10 μL compound+90 μL TBST). Add 13.5 μL diluted drugs/extracts to ELISA plate. […] Incubate for 30 minutes while shaking at room temperature.
Approximately 150 μL final volume in well with 3 uM ATP/5 mM MnCl2 final concentration in well. Incubate 5 minutes while shaking. Note that this is a timed event. It is critical that ATP/MnCl2 phosphorylates the receptor for only 5 minutes. It is best to add the ATP/MnCl2 with an automated 96 place pipettor workstation, then 5 minutes later stop the reaction with EDTA using the same workstation. Alternatively, addition can be performed using a 12 channel pipettor 1 row at a time, leaving 20 seconds between each row so that the reaction may be stopped with EDTA exactly 5 minutes later (this depends on the number of plates being phosphorylated in one batch). Shake between each addition.
[…] This is done using either the same work station as above, or the same timing method employed with the 12 channel pipettor. After the EDTA has been added, shake for 1 minute. Wash 4× with deionized water, twice with TBST.
Add 100 μL per well of anti-phosphotyrosine (1:3000 dilution in TBST). Incubate 30-45 minutes at room temperature, with shaking. Wash 1× with distilled H2O by filling wells. Pat the plate on a paper towel to remove excess liquid.
Incubate 30 minutes at room temperature, with shaking. Wash 1× with distilled H2O by filling wells. Pat the plate on a paper towel to remove excess liquid.
Add 100 μL of ABTS/H2O2 solution to each well. Incubate 5 to 10 minutes while shaking. Remove any bubbles. If necessary stop reaction with the addition of 100 μL of 0.2M HCl per well.
(§1) Read assay on Dynatech MR7000 ELISA reader.

The next experiment addresses T2, PDGFR (Homo sapiens, UniProt P09619).
T2 construct: expressed in transfected cells; host or cells: NIH3T3
As to the kind of experiment: Assay for modulation of PDGFR activity (ELISA). The experiment is classed as biochemical. As to conditions: read-out: bio PDGFR IC50. As for the experimental part:
Using the following reagents, supplies, and methods, the ability of the compounds of the invention to modulate the in vitro activity of the PDGFR can be readily determined in an enzyme-linked immunosorbent assay (ELISA).
Monoclonal anti-PDGFR antibody (28D4C10) is stored at −20° C. in 50 mL tubes prior to use.
Lysates from PDGFR-β expressing NIH3T3 cells are obtained and stored at −80° C. in 1 mL aliquots. PDGFR-β expression in eukaryotic cells is well known in the art. Lysates are prepared by the following method. Place carrier dishes in ice trays, and after cooling, remove the media and replace with ice cold PBS. Remove the PBS and repeat. […] Take up lysate with a pipettor and add to a 30 mL centrifuge tube on ice. Vortex the tubes for 30-60 seconds and then centrifuge for 10 minutes at 7000 rpm in a J-20 rotor which has been precooled to below 0° C. Recover the supernatants and combine them in a 250 mL tube and place on ice. Perform protein determination to measure the total quantity of protein per mL of solution. Aliquot the lysate into 1 mL fractions and store at −80° C.
Coat Corning 96 well ELISA plates with 0.5 μg per well 28D4C10 antibody in a volume of 100 μl PBS overnight, at 4° C. and remove unbound antibody, 28D4C10, from wells by inverting plate to remove liquid. Wash 1× with distilled H2O by filling wells. Pat the plate on a paper towel to remove excess liquid.
Add 150 μL of Blocking Buffer to each well. Incubate for 30 minutes at room temperature, with shaking and wash plate 3× with deionized water, then once with TBST. Pat plate on a paper towel to remove excess liquid and bubbles
Dilute lysate in PBS (10 mg lysate/100 μL PBS). Add 100 μL of diluted lysate to each well. Shake at room temperature for 60 min. Wash plate 3× with deionized water, then once with TBST. Pat plate on a paper towel to remove excess liquid and bubbles.
Add 80 μL Kinase Buffer to ELISA plate containing captured PDGFR.
Dilute drugs/extracts 1:10 (unless specified otherwise) in TBS+10% DMSO in 96-well polypropylene plates. (i.e., 10 μL compound+90 μL (TBS+10% DMSO)). Add 10 μL diluted drugs/extracts to ELISA plate. […] Incubate for 30 minutes while shaking at room temperature.
After 30 minutes stop reaction with addition of 10 μL of 200 mM EDTA pH 8.0 for 20 mM final in well. Wash 4× with deionized water, twice with TBST.
Incubate 30-45 minutes at room temperature, with shaking. Wash plate 3× with deionized water, then once with TBST. Pat plate on a paper towel to remove excess liquid and bubbles.
Incubate 30 minutes at room temperature with shaking. Wash plate 3× with deionized water, then once with TBST. Pat plate on a paper towel to remove excess liquid and bubbles.
Add 100 μL of ABTS/H2O2 solution to each well. Incubate 10 to 30 minutes while shaking. Remove any bubbles. If necessary stop reaction with the addition of 100 μL of 0.2M HCl per well
as §1
A general note: ELISA stands for enzyme-linked immunosorbent assay.

Structures are written as SMILES. Like-named read-outs stand apart in the source and are kept apart here.

As usually defined, the IC50 is the concentration that gives 50% inhibition.

T2 sequence (P09619 33-1106, species assumed): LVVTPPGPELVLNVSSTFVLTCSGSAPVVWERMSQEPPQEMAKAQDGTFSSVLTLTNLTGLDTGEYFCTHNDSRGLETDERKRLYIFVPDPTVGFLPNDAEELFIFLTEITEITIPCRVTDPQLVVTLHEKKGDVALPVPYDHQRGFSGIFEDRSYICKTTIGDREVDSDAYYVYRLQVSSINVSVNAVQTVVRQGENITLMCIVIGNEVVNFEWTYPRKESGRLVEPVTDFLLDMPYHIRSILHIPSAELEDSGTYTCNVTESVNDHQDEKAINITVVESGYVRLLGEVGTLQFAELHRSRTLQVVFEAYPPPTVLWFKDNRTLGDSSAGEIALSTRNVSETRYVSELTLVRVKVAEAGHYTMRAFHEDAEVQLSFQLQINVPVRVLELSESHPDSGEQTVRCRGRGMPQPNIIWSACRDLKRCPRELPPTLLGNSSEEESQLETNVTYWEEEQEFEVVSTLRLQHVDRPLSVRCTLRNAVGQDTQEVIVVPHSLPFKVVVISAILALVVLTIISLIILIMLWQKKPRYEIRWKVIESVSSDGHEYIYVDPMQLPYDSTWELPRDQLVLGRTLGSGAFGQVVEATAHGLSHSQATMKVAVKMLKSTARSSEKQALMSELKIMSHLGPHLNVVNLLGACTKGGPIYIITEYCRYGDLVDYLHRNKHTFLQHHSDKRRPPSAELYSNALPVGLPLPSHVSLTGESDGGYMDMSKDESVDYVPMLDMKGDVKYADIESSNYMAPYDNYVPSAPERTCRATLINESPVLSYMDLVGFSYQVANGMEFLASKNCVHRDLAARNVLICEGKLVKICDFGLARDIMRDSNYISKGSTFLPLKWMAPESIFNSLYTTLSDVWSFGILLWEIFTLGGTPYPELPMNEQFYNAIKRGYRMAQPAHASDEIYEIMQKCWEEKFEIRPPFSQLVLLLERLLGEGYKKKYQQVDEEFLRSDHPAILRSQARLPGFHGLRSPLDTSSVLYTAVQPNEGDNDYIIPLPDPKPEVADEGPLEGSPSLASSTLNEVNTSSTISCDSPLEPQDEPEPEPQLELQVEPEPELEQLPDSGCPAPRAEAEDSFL
T1 sequence (P00533 25-1210): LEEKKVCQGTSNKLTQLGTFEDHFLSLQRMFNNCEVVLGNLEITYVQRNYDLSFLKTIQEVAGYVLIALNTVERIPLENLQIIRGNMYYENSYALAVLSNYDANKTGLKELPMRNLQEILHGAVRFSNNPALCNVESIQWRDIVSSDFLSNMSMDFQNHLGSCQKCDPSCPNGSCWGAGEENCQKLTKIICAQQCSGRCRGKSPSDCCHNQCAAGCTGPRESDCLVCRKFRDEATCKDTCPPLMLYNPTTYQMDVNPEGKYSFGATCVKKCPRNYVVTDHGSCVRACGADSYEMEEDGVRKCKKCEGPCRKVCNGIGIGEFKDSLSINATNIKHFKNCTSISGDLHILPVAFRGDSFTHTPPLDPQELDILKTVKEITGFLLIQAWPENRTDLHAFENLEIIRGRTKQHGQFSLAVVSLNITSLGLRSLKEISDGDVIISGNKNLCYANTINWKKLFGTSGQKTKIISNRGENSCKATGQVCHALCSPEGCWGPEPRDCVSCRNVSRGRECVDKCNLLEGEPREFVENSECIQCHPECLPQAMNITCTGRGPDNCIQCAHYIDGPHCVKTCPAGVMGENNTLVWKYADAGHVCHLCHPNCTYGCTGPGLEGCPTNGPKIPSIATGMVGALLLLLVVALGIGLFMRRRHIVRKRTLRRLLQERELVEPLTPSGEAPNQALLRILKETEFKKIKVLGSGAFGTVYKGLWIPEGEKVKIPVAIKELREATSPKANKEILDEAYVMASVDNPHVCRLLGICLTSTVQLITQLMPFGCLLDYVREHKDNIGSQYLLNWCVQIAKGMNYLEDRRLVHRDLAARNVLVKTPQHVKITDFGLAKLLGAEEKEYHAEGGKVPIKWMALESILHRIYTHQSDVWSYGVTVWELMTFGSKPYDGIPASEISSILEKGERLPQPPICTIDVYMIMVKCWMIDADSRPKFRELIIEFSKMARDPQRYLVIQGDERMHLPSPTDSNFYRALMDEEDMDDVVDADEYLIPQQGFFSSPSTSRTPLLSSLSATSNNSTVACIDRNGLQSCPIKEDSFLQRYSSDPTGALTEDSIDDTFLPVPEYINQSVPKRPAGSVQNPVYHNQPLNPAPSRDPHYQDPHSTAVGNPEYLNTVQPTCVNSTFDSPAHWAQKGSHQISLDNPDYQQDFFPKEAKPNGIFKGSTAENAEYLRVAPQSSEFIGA

Take `Cc1[nH]c(C=C2C(=O)Nc3ncnc(Nc4ccc(F)c(Cl)c4)c32)c(C)c1CCC(=O)O` [Formula 19, 3-{5-[4-(3-CHLORO-4-FLUORO-PHENYLAMINO)-6-OXO-6,7-DIHYDRO-PYRROLO[2,3-D]PYRIMIDIN-5-YLIDENEMETHYL]-2,4-DIMETHYL-1H-PYRROL-3-YL}-PROPIONIC ACID]: the IC50 came out at 170 nM at EGFR (read-out: bio EGFR IC50) and 12800 nM at PDGFR.

Consider `Cc1[nH]c(/C=C2\C(=O)Nc3ncnc(Nc4ccc(F)c(Cl)c4)c32)c(C)c1CCC(=O)N1CCCC1` [Formula 24], for which the figures for the concentration for half-maximal inhibition (IC50) on EGFR (read-out: bio EGFR IC50) and on PDGFR were 890 nM and above 20000 nM, respectively.

The compound `Cc1cc(C(=O)N2CCOCC2)[nH]c1/C=C1\C(=O)Nc2ncnc(Nc3ccc(F)c(Cl)c3)c21` [Formula 26] came in with a 50% inhibitory concentration (IC50) against EGFR of 160 nM.

On to `Cc1c(C(=O)N2CCN(C)CC2)c[nH]c1/C=C1\C(=O)Nc2ncnc(Nc3ccc(F)c(Cl)c3)c21` [Formula 29], for which the concentration for half-maximal inhibition (IC50) against EGFR amounted to 450 nM.

Take `Cc1[nH]c(/C=C2\C(=O)Nc3ncnc(Nc4ccc(F)c(Cl)c4)c32)c(C)c1CCC(=O)N1CCOCC1` [Formula 30]: the figures for the IC50 on EGFR (read-out: bio EGFR IC50) and at PDGFR were 770 nM and above 20000 nM, respectively.

For the compound `O=C1Nc2ncnc(Nc3ccc(F)c(Cl)c3)c2/C1=C/c1ccc(C(=O)N2CCOCC2)[nH]1` [Formula 33], the half-maximal inhibitory concentration (IC50) was 900 nM at EGFR (read-out: bio EGFR IC50) and above 20000 nM at PDGFR.

For `Cc1cc(C)c(/C=C2\C(=O)N(C)c3ncnc(Nc4ccc(F)c(Cl)c4)c32)[nH]1` [Formula 38], the IC50 on EGFR (read-out: bio EGFR IC50) was 5600 nM.

`Cc1cc(C(=O)N2CCN(C)CC2)[nH]c1/C=C1\C(=O)Nc2ncnc(Nc3ccc(F)c(Cl)c3)c21` [Formula 39]: the midpoint of inhibition on EGFR, the IC50, lay at 4 nM.

For `Cc1[nH]c(/C=C2\C(=O)N(C)c3ncnc(Nc4ccc(F)c(Cl)c4)c32)c(C)c1CCC(=O)O` [Formula 40], on EGFR (read-out: bio EGFR IC50), the concentration for half-maximal inhibition (IC50) was found to be 4200 nM.

In the case of `Cc1[nH]c(/C=C2\C(=O)Nc3ncnc(Nc4ccc(F)c(Cl)c4)c32)c(C)c1C(=O)N1CCN(C)CC1` [Formula 41], the 50% inhibitory concentration (IC50) on EGFR (read-out: bio EGFR IC50) was 540 nM; on PDGFR, above 20000 nM.

On to `Cc1cc(CCC(=O)O)[nH]c1/C=C1\C(=O)N(C)c2ncnc(Nc3ccc(F)c(Cl)c3)c21` [Formula 42], for which the half-inhibitory concentration (IC50) on EGFR (read-out: bio EGFR IC50) was 10400 nM.

As to `Cc1[nH]c(/C=C2\C(=O)Nc3ncnc(Nc4ccc(F)c(Cl)c4)c32)c(C)c1C(=O)N1CCOCC1` [Formula 43], the half-inhibitory concentration (IC50) on EGFR (read-out: bio EGFR IC50) was 860 nM; at PDGFR it was above 20000 nM.

Regarding `Cc1[nH]c(/C=C2\C(=O)N(C)c3ncnc(Nc4ccc(F)c(Cl)c4)c32)c(C)c1CCCN1CCOCC1` [Formula 44], the IC50 at EGFR (read-out: bio EGFR IC50) was above 20000 nM.

On to `CN1CCN(C(=O)c2ccc(/C=C3\C(=O)Nc4ncnc(Nc5ccc(F)c(Cl)c5)c43)[nH]2)CC1` [Formula 45], for which the IC50 on EGFR (read-out: bio EGFR IC50) was 50 nM; at PDGFR, above 20000 nM.

Consider `Cc1cc(C(=O)N2CCOCC2)[nH]c1/C=C1\C(=O)Nc2ncnc(NC(C)c3ccccc3)c21` (stereo not shown) [Formula 46], for which the IC50 at EGFR (read-out: bio EGFR IC50) worked out at 1.2 nM.

For the compound `Cc1cc(C(=O)O)[nH]c1/C=C1\C(=O)Nc2ncnc(Nc3ccc(F)c(Cl)c3)c21` [Formula 47], on EGFR (read-out: bio EGFR IC50), the 50% inhibitory concentration (IC50) worked out at 36 nM.

Consider `Cc1cc(C(=O)N2CC(C)N(C)C(C)C2)[nH]c1/C=C1\C(=O)Nc2ncnc(Nc3ccc(F)c(Cl)c3)c21` (stereo not shown) [Formula 53], for which, at EGFR (read-out: bio EGFR IC50), the IC50 was below 156 nM.

For the compound `CCN1CCN(C(=O)c2cc(C)c(/C=C3\C(=O)Nc4ncnc(Nc5ccc(F)c(Cl)c5)c43)[nH]2)CC1` [Formula 54], at EGFR (read-out: bio EGFR IC50), the IC50 is below 156 nM.
